Laboratory results: patent publication US20120083522A1, “MODULATION OF INFLAMMATORY RESPONSES BY FACTOR XI” (Isis Pharmaceuitcals, inc., priority 2009, published 2012)

Tests used:
[1] = system: human Factor XI mRNA; test: Dose-dependent inhibition in HepB3 cells, lipofectin (Example 7); type: cell-based; settings: approx. 16 h
Description: Cells were plated at a density of 4,000 cells per well and transfected using lipofectin reagent with 2.3 nM, 4.7 nM, 9.4 nM, 18.75 nM, 37.5 nM, and 75 nM concentrations of antisense oligonucleotide, as specified in Table 14. After a treatment period of approximately 16 hours, RNA was isolated from the cells and human Factor XI mRNA levels were measured by quantitative real-time PCR. Human Factor XI primer probe set RTS 2966 was used to measure mRNA levels. Factor XI mRNA levels were adjusted according to total RNA content, as measured by RIBOGREEN®. Results are presented as percent inhibition of Factor XI, relative to untreated control cells.

[2] = system: human Factor XI mRNA; test: Dose-dependent inhibition in HepG2 cells, electroporation (Example 5); type: cell-based; settings: approx. 16 h, relative to untreated control cells
Description: The gapmers were also transfected via electroporation and their dose dependent inhibition of human Factor XI mRNA was measured. Cells were plated at a density of 20,000 cells per well and transfected via electroporation with 625 nM, 1250 nM, 2500 nM, 5,000 nM, 10,000 nM, and 20,000 nM concentrations of antisense oligonucleotide, as specified in Table 12. After a treatment period of approximately 16 hours, RNA was isolated from the cells and human Factor XI mRNA levels were measured by quantitative real-time PCR. Human Factor XI primer probe set RTS 2966 was used to measure mRNA levels. Factor XI mRNA levels were adjusted according to total RNA content, as measured by RIBOGREEN®. Results are presented as percent inhibition of human Factor XI, relative to untreated control cells.

[3] = Tolerability in Sprague-Dawley rats: body and organ weight (Example 19); type: in vivo; settings: 50 mg/kg s.c. twice per week for 6 weeks, change over weight at start of study
From the text: (§1) Urine samples were taken before the start of treatment.
The body weights are presented in Table 78 and are expressed as a percent change over the weights taken at the start of the study.

[4] = system: human Factor XI mRNA; test: Dose-dependent inhibition in cyno primary hepatocytes, electroporation (Example 6); type: cell-based, cynomolgus monkey; settings: approx. 16 h
Description: Cells were plated at a density of 35,000 cells per well and transfected via electroporation with 0.74 nM, 2.2 nM, 6.7 nM, 20 nM, 60 nM, and 180 nM concentrations of antisense oligonucleotide, as specified in Table 13. After a treatment period of approximately 16 hours, RNA was isolated from the cells and human Factor XI mRNA levels were measured by quantitative real-time PCR. Human Factor XI primer probe set RTS 2966 was used to measure mRNA levels. Factor XI mRNA levels were adjusted according to total RNA content, as measured by RIBOGREEN®. Results are presented as percent inhibition of human Factor XI, relative to untreated control cells.

[5] = Tolerability in Sprague-Dawley rats: kidney function (Example 19); type: in vivo; settings: Sprague Dawley rats; for urine protein/creatinine ratio, After: after 50 mg/kg s.c. twice per week for 6 weeks; for urine protein/creatinine ratio, Before: before antisense oligonucleotide treatment
From the text: as §1

[6] = system: human Factor XI mRNA; test: Antisense inhibition in HepG2 cells by microwalk gapmers, 75 nM, lipofectin (Example 3); type: cell-based; settings: HepG2 cells, 75 nM
Procedure, shortened: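 HepG2 cells (10,000 per well) were transfected with 75 nM gapmer using lipofectin and treated for about 24 h. Factor XI mRNA was quantified by real-time PCR, normalized to RiboGreen total RNA and expressed as percent inhibition versus untreated controls.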

[7] = oligonucleotides targeted to nucleobases 1275 to 1318 of SEQ ID NO: 1

416825 (antisense GCCCTTCATGTCTAGGTCCA; 5-10-5 gapmer, wing sugar chemistry not given here, further chemistry not given here) [compound 416825]
percent inhibition of human Factor XI mRNA ([1]; 2.3 nM): 0% | percent inhibition of human Factor XI mRNA ([1]; 4.7 nM): 15% | percent inhibition of human Factor XI mRNA ([1]; 9.4 nM): 34% | percent inhibition of human Factor XI mRNA ([1]; 18.75 nM): 36% | percent inhibition of human Factor XI mRNA ([1]; 37.5 nM): 53% | percent inhibition of human Factor XI mRNA ([1]; 75 nM): 59% | percent inhibition of human Factor XI mRNA ([2]; 625 nM): 69% | percent inhibition of human Factor XI mRNA ([2]; 1250 nM): 84% | percent inhibition of human Factor XI mRNA ([2]; 2500 nM): 91% | percent inhibition of human Factor XI mRNA ([2]; 5000 nM): 94% | percent inhibition of human Factor XI mRNA ([2]; 10000 nM): 96% | percent inhibition of human Factor XI mRNA ([2]; 20000 nM): 97% | Percent change in Body weight [3]: −18% | percent inhibition of human Factor XI mRNA ([4]; 0.74 nM): 5% | percent inhibition of human Factor XI mRNA ([4]; 2.2 nM): 22% | percent inhibition of human Factor XI mRNA ([4]; 6.7 nM): 51% | percent inhibition of human Factor XI mRNA ([4]; 20 nM): 61% | percent inhibition of human Factor XI mRNA ([4]; 60 nM): 77% | percent inhibition of human Factor XI mRNA ([4]; 180 nM): 84% | urine protein/creatinine ratio, After [5]: 5.4 | urine protein/creatinine ratio, Before [5]: 1.1

416838 (antisense GCAACCGGGATGATGAGTGC; 5-10-5 gapmer, wing sugar chemistry not given here, further chemistry not given here) [compound 416838]
percent inhibition of human Factor XI mRNA ([1]; 2.3 nM): 23% | percent inhibition of human Factor XI mRNA ([1]; 4.7 nM): 34% | percent inhibition of human Factor XI mRNA ([1]; 9.4 nM): 43% | percent inhibition of human Factor XI mRNA ([1]; 18.75 nM): 59% | percent inhibition of human Factor XI mRNA ([1]; 37.5 nM): 71% | percent inhibition of human Factor XI mRNA ([1]; 75 nM): 56% | percent inhibition of human Factor XI mRNA ([2]; 625 nM): 66% | percent inhibition of human Factor XI mRNA ([2]; 1250 nM): 79% | percent inhibition of human Factor XI mRNA ([2]; 2500 nM): 87% | percent inhibition of human Factor XI mRNA ([2]; 5000 nM): 90% | percent inhibition of human Factor XI mRNA ([2]; 10000 nM): 93% | percent inhibition of human Factor XI mRNA ([2]; 20000 nM): 96% | Percent change in Body weight [3]: −23% | % inhibition of human Factor XI mRNA levels ([6]; oligonucleotides targeted to nucleobases 1018 to 1042 of SEQ ID NO: 1): 94% | percent inhibition of human Factor XI mRNA ([4]; 0.74 nM): 0% | percent inhibition of human Factor XI mRNA ([4]; 2.2 nM): 0% | percent inhibition of human Factor XI mRNA ([4]; 6.7 nM): 21% | percent inhibition of human Factor XI mRNA ([4]; 20 nM): 34% | percent inhibition of human Factor XI mRNA ([4]; 60 nM): 48% | percent inhibition of human Factor XI mRNA ([4]; 180 nM): 62% | urine protein/creatinine ratio, After [5]: 3.7 | urine protein/creatinine ratio, Before [5]: 1.2

416850 (antisense TGCACAGTTTCTGGCAGGCC; 5-10-5 gapmer, wing sugar chemistry not given here, further chemistry not given here) [compound 416850]
percent inhibition of human Factor XI mRNA ([1]; 2.3 nM): 22% | percent inhibition of human Factor XI mRNA ([1]; 4.7 nM): 32% | percent inhibition of human Factor XI mRNA ([1]; 9.4 nM): 43% | percent inhibition of human Factor XI mRNA ([1]; 18.75 nM): 56% | percent inhibition of human Factor XI mRNA ([1]; 37.5 nM): 75% | percent inhibition of human Factor XI mRNA ([1]; 75 nM): 60% | percent inhibition of human Factor XI mRNA ([2]; 625 nM): 69% | percent inhibition of human Factor XI mRNA ([2]; 1250 nM): 80% | percent inhibition of human Factor XI mRNA ([2]; 2500 nM): 87% | percent inhibition of human Factor XI mRNA ([2]; 5000 nM): 90% | percent inhibition of human Factor XI mRNA ([2]; 10000 nM): 93% | percent inhibition of human Factor XI mRNA ([2]; 20000 nM): 96% | Percent change in Body weight [3]: −33% | % inhibition of human Factor XI mRNA levels [6, 7]: 93% | percent inhibition of human Factor XI mRNA ([4]; 0.74 nM): 2% | percent inhibition of human Factor XI mRNA ([4]; 2.2 nM): 20% | percent inhibition of human Factor XI mRNA ([4]; 6.7 nM): 24% | percent inhibition of human Factor XI mRNA ([4]; 20 nM): 65% | percent inhibition of human Factor XI mRNA ([4]; 60 nM): 69% | percent inhibition of human Factor XI mRNA ([4]; 180 nM): 67% | urine protein/creatinine ratio, After [5]: 4.0 | urine protein/creatinine ratio, Before [5]: 1.0

416858 (antisense ACGGCATTGGTGCACAGTTT; 5-10-5 gapmer, wing sugar chemistry not given here, further chemistry not given here) [compound 416858]
percent inhibition of human Factor XI mRNA ([1]; 2.3 nM): 17% | percent inhibition of human Factor XI mRNA ([1]; 4.7 nM): 34% | percent inhibition of human Factor XI mRNA ([1]; 9.4 nM): 43% | percent inhibition of human Factor XI mRNA ([1]; 18.75 nM): 57% | percent inhibition of human Factor XI mRNA ([1]; 37.5 nM): 74% | percent inhibition of human Factor XI mRNA ([1]; 75 nM): 62% | percent inhibition of human Factor XI mRNA ([2]; 625 nM): 65% | percent inhibition of human Factor XI mRNA ([2]; 1250 nM): 77% | percent inhibition of human Factor XI mRNA ([2]; 2500 nM): 87% | percent inhibition of human Factor XI mRNA ([2]; 5000 nM): 89% | percent inhibition of human Factor XI mRNA ([2]; 10000 nM): 93% | percent inhibition of human Factor XI mRNA ([2]; 20000 nM): 93% | Percent change in Body weight [3]: −21% | % inhibition of human Factor XI mRNA levels [6, 7]: 93% | percent inhibition of human Factor XI mRNA ([4]; 0.74 nM): 2% | percent inhibition of human Factor XI mRNA ([4]; 2.2 nM): 13% | percent inhibition of human Factor XI mRNA ([4]; 6.7 nM): 22% | percent inhibition of human Factor XI mRNA ([4]; 20 nM): 44% | percent inhibition of human Factor XI mRNA ([4]; 60 nM): 63% | percent inhibition of human Factor XI mRNA ([4]; 180 nM): 68% | urine protein/creatinine ratio, After [5]: 4.4 | urine protein/creatinine ratio, Before [5]: 0.9

416864 (antisense GGCAGCGGACGGCATTGGTG; 5-10-5 gapmer, wing sugar chemistry not given here, further chemistry not given here) [compound 416864]
percent inhibition of human Factor XI mRNA ([1]; 2.3 nM): 24% | percent inhibition of human Factor XI mRNA ([1]; 4.7 nM): 37% | percent inhibition of human Factor XI mRNA ([1]; 9.4 nM): 42% | percent inhibition of human Factor XI mRNA ([1]; 18.75 nM): 66% | percent inhibition of human Factor XI mRNA ([1]; 37.5 nM): 76% | percent inhibition of human Factor XI mRNA ([1]; 75 nM): 63% | percent inhibition of human Factor XI mRNA ([2]; 625 nM): 45% | percent inhibition of human Factor XI mRNA ([2]; 1250 nM): 74% | percent inhibition of human Factor XI mRNA ([2]; 2500 nM): 84% | percent inhibition of human Factor XI mRNA ([2]; 5000 nM): 87% | percent inhibition of human Factor XI mRNA ([2]; 10000 nM): 92% | percent inhibition of human Factor XI mRNA ([2]; 20000 nM): 94% | Percent change in Body weight [3]: −24% | % inhibition of human Factor XI mRNA levels [6, 7]: 93% | percent inhibition of human Factor XI mRNA ([4]; 0.74 nM): 0% | percent inhibition of human Factor XI mRNA ([4]; 2.2 nM): 1% | percent inhibition of human Factor XI mRNA ([4]; 6.7 nM): 15% | percent inhibition of human Factor XI mRNA ([4]; 20 nM): 23% | percent inhibition of human Factor XI mRNA ([4]; 60 nM): 47% | percent inhibition of human Factor XI mRNA ([4]; 180 nM): 64% | urine protein/creatinine ratio, After [5]: 4.0 | urine protein/creatinine ratio, Before [5]: 1.2

416925 (antisense GGTGCACAGTTTCTGGCAGG; 3-14-3 chimeric gapmer, wing sugar chemistry not given here, further chemistry not given here) [compound 416925]
percent inhibition of human Factor XI mRNA ([1]; 2.3 nM): 26% | percent inhibition of human Factor XI mRNA ([1]; 4.7 nM): 33% | percent inhibition of human Factor XI mRNA ([1]; 9.4 nM): 45% | percent inhibition of human Factor XI mRNA ([1]; 18.75 nM): 59% | percent inhibition of human Factor XI mRNA ([1]; 37.5 nM): 72% | percent inhibition of human Factor XI mRNA ([1]; 75 nM): 60% | percent inhibition of human Factor XI mRNA ([2]; 625 nM): 64% | percent inhibition of human Factor XI mRNA ([2]; 1250 nM): 80% | percent inhibition of human Factor XI mRNA ([2]; 2500 nM): 88% | percent inhibition of human Factor XI mRNA ([2]; 5000 nM): 91% | percent inhibition of human Factor XI mRNA ([2]; 10000 nM): 95% | percent inhibition of human Factor XI mRNA ([2]; 20000 nM): 96% | Percent change in Body weight [3]: −32% | % inhibition of human Factor XI mRNA levels [6, 7]: 98% | percent inhibition of human Factor XI mRNA ([4]; 0.74 nM): 0% | percent inhibition of human Factor XI mRNA ([4]; 2.2 nM): 9% | percent inhibition of human Factor XI mRNA ([4]; 6.7 nM): 1% | percent inhibition of human Factor XI mRNA ([4]; 20 nM): 48% | percent inhibition of human Factor XI mRNA ([4]; 60 nM): 55% | percent inhibition of human Factor XI mRNA ([4]; 180 nM): 76% | urine protein/creatinine ratio, After [5]: 4.3 | urine protein/creatinine ratio, Before [5]: 1.0
